Measurements from patent US20240083886A1, “HETEROCYCLIC GLP-1 AGONISTS” (Gasherbrum Bio, Inc., priority 2020, published 2024).

target: GLP-1 Receptor (Homo sapiens, UniProt P43220); assay: GLP-1R agonist cAMP stimulation assay; assay type: cell-based; details: not given
Description: Activation of GLP-1 receptor is known to stimulate cyclic AMP (cAMP) production in cells which indicates primary coupling to the Gαs subunit of the G protein heterotrimeric complex.
To optimize functional activity directed toward Gαs coupling, a HEK293/CRE-Luc cell line developed by HDB stably expressing the GLP-1 Receptor was used. 200× concentration of compound working solutions were prepared (Agilent Technologies Bravo) with ½ log serial dilution in 384-well Echo LDV plate (Labcyte, Cat #LP-0200). 50 nL/well 200× concentration of compound working solutions were moved to 384-well white low volume plate (Greiner, Cat #784075) using Labcyte ECHO550. 1×10^5 cells/mL HEK293/GLP1R/CRE-LUC(HD Biosciences) cell suspensions prepared with assay buffer[DPBS containing 0.5 mM IBMX(Sigma, Cat #15879) and 0.1% BSA (GENVIEW, Cat #FA016-100 g)], 10 uL cell suspensions were added to each well of previous generated assay plate which already contains 50 nl compound at 200×concentration using ThermoFisher Multidrop Combi (1000 cells/well). Seal the plate and incubate at 37° C. with 5% CO2 for 30 min.
After incubation the cAMP assay signal was generated using cAMP dynamic 2 Kit (Cisbio). 5 μL cAMP-d2 working solution was added to each well, followed with 5 μL Anti-cAMP antibody-cryptate working solution added to each well using ThermoFisher Multidrop Combi. Incubate at room temperature for 1 hour protected from light. Read the fluorescence at 665 and 615 nm with Reader PerkinElmer EnVision.
% Activity=100%×(mean RLU of test sample−mean RLU of vehicle control)/(mean RLU of MAX control−mean RLU of vehicle control))

Chain of GLP-1 Receptor (P43220 24-463, species assumed): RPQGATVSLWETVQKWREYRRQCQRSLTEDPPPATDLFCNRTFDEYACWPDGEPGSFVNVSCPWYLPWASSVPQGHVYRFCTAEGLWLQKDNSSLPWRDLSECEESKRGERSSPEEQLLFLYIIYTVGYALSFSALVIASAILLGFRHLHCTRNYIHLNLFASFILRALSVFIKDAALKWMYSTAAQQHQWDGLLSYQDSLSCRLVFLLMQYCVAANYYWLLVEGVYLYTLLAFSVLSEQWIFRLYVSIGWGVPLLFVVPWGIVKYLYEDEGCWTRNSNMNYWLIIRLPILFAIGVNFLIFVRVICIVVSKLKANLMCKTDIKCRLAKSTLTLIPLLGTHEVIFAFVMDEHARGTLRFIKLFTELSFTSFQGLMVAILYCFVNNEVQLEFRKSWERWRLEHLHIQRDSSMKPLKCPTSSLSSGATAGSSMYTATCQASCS

Structure (SMILES)	EC50
CCOCCn1c(CN2CCC(Oc3ccnc(Cc4ccc(Cl)cc4)n3)CC2)nc2cc(-c3nnc(C(F)(F)F)[nH]3)cnc21 [Compound 123, 2-[(4-chlorophenyl)methyl]-4-[(1-{[3-(2-ethoxyethyl)-6-[5-(trifluoromethyl)-4H-1,2,4-triazol-3-yl]-3H-imidazo[4,5-b]pyridin-2-yl]methyl}piperidin-4-yl)oxy]pyrimidine]	5.7 nM

same assay, conditions: HEK293/GLP1R/CRE-LUC cells, cAMP dynamic 2 Kit (Cisbio), 30 min incubation at 37° C.; read-out: EC50

Structure (SMILES)	EC50
Fc1cc(Cl)ccc1Cc1cccc(OC2CCN(Cc3nc4cc(-c5nnc(C(F)(F)F)[nH]5)ncc4n3C3CCOCC3)CC2)n1 [Compound 191, 2-[(4-chloro-2-fluorophenyl)methyl]-6-[(1-{[3-(oxan-4-yl)-6-[5-(trifluoromethyl)-4H-1,2,4-triazol-3-yl]-3H-imidazo[4,5-c]pyridin-2-yl]methyl}piperidin-4-yl)oxy]pyridine]	41 nM
Cc1ccncc1C(=O)Nc1ccc2c(c1)nc(CN1CCC(Oc3ccnc(Cc4ccc(Cl)cc4)n3)CC1)n2C[C@@H]1CCO1 [Compound 105a, N-(2-{[4-({2-[(4-chlorophenyl)methyl]pyrimidin-4-yl}oxy)piperidin-1-yl]methyl}-1-{[(2S)-oxetan-2-yl]methyl}-1H-1,3-benzodiazol-5-yl)-4-methylpyridine-3-carboxamide]	5.8 nM
FC(F)(F)c1nnc(-c2ccc3c(c2)nc(CN2CCC(Oc4ccnc(Cc5ccc(Cl)cc5)n4)CC2)n3C[C@H]2CCOC2)[nH]1 [Compound 148a, 2-{[4-({2-[(4-chlorophenyl)methyl]pyrimidin-4-yl}oxy)piperidin-1-yl]methyl}-1-{[(3R)-oxolan-3-yl]methyl}-5-[5-(trifluoromethyl)-4H-1,2,4-triazol-3-yl]-1H-1,3-benzodiazole]	1.4 nM
CC(C)c1ccc(C(=O)Nc2ccc3c(c2)nc(CN2CCC(Oc4ccnc(Cc5ccc(Cl)cc5F)n4)CC2)n3C[C@@H]2CCO2)cn1 [Compound 116a, N-(2-{[4-({2-[(4-chloro-2-fluorophenyl)methyl]pyrimidin-4-yl}oxy)piperidin-1-yl]methyl}-1-{[(2S)-oxetan-2-yl]methyl}-1H-1,3-benzodiazol-5-yl)-6-(propan-2-yl)pyridine-3-carboxamide]	11 nM
N#CC1(Cn2c(CN3CCC(Oc4ccnc(Cc5ccc(Cl)cc5)n4)CC3)nc3cc(-c4nnc(C(F)(F)F)[nH]4)ccc32)CC1 [Compound 157, 1-[(2-{[4-({2-[(4-chlorophenyl)methyl]pyrimidin-4-yl}oxy)piperidin-1-yl]methyl}-5-[5-(trifluoromethyl)-4H-1,2,4-triazol-3-yl]-1H-1,3-benzodiazol-1-yl)methyl]cyclopropane-1-carbonitrile]	1.1 nM
COCCOc1ccc(C(=O)Nc2ccc3c(c2)nc(CN2CCC(Oc4ccnc(Cc5ccc(Cl)cc5F)n4)CC2)n3C[C@@H]2CCO2)cn1 [Compound 115a, N-(2-{[4-({2-[(4-chloro-2-fluorophenyl)methyl]pyrimidin-4-yl}oxy)piperidin-1-yl]methyl}-1-{[(2S)-oxetan-2-yl]methyl}-1H-1,3-benzodiazol-5-yl)-6-(2-methoxyethoxy)pyridine-3-carboxamide]	2.7 nM
COC1(Cn2c(CN3CCC(Oc4cccc(Cc5ccc(Cl)cc5F)n4)CC3)nc3cc(-c4nnc(C(F)(F)F)[nH]4)ncc32)CC1 [Compound 192, 2-[(4-chloro-2-fluorophenyl)methyl]-6-{[1-({3-[(1-methoxycyclopropyl)methyl]-6-[5-(trifluoromethyl)-4H-1,2,4-triazol-3-yl]-3H-imidazo[4,5-c]pyridin-2-yl}methyl)piperidin-4-yl]oxy}pyridine]	4 nM
Fc1cnc(Cc2ccc(Cl)cc2)nc1OC1CCN(Cc2nc3cc(-c4nnc(C(F)(F)F)[nH]4)ccc3n2C[C@H]2CCOC2)CC1 [Compound 147a, 2-{[4-({2-[(4-chlorophenyl)methyl]-5-fluoropyrimidin-4-yl}oxy)piperidin-1-yl]methyl}-1-{[(3R)-oxolan-3-yl]methyl}-5-[5-(trifluoromethyl)-4H-1,2,4-triazol-3-yl]-1H-1,3-benzodiazole]	11 nM
FC1(F)CCN(Cc2cccc(OC3CCN(Cc4nc5cc(-c6nnc(C(F)(F)F)[nH]6)ncc5n4C[C@@H]4CCO4)CC3)n2)CC1 [Compound 184a, 2-[(4,4-difluoropiperidin-1-yl)methyl]-6-({1-[(3-{[(2S)-oxetan-2-yl]methyl}-6-[5-(trifluoromethyl)-4H-1,2,4-triazol-3-yl]-3H-imidazo[4,5-c]pyridin-2-yl)methyl]piperidin-4-yl}oxy)pyridine]	13 nM

Next, values leading:

EC50	Structure (SMILES)
1.1 nM	Cc1ccc(C(=O)Nc2ccc3c(c2)nc(CN2CCC(Oc4ccnc(Cc5ccc(Cl)cc5)n4)CC2)n3C[C@@H]2CCO2)cn1 [Compound 104a, N-(2-{[4-({2-[(4-chlorophenyl)methyl]pyrimidin-4-yl}oxy)piperidin-1-yl]methyl}-1-{[(2S)-oxetan-2-yl]methyl}-1H-1,3-benzodiazol-5-yl)-6-methylpyridine-3-carboxamide]
0.081 nM	Fc1cc(Cl)ccc1Cc1ncc(F)c(OC2CCN(Cc3nc4cc(-c5nnc(C(F)(F)F)[nH]5)ncc4n3C[C@@H]3CCO3)CC2)n1 [Compound 168a, 2-[(4-chloro-2-fluorophenyl)methyl]-5-fluoro-4-({1-[(3-{[(2S)-oxetan-2-yl]methyl}-6-[5-(trifluoromethyl)-4H-1,2,4-triazol-3-yl]-3H-imidazo[4,5-c]pyridin-2-yl)methyl]piperidin-4-yl}oxy)pyrimidine]
0.093 nM	Cc1ncccc1C(=O)Nc1ccc2c(c1)nc(CN1CCC(Oc3ccnc(Cc4ccc(Cl)cc4)n3)CC1)n2C[C@@H]1CCO1 [Compound 103a, N-(2-{[4-({2-[(4-chlorophenyl)methyl]pyrimidin-4-yl}oxy)piperidin-1-yl]methyl}-1-{[(2S)-oxetan-2-yl]methyl}-1H-1,3-benzodiazol-5-yl)-2-methylpyridine-3-carboxamide]
0.37 nM	COc1ccc(C(=O)Nc2ccc3c(c2)nc(CN2CCC(Oc4ccnc(Cc5ccc(Cl)cc5F)n4)CC2)n3C[C@@H]2CCO2)cn1 [Compound 112a, N-(2-{[4-({2-[(4-chloro-2-fluorophenyl)methyl]pyrimidin-4-yl}oxy)piperidin-1-yl]methyl}-1-{[(2S)-oxetan-2-yl]methyl}-1H-1,3-benzodiazol-5-yl)-6-methoxypyridine-3-carboxamide]
0.49 nM	N#CC1(Cn2c(CN3CCC(Oc4cccc(Cc5ccc(Cl)cc5F)n4)CC3)nc3cc(-c4nnc(C(F)(F)F)[nH]4)ncc32)CC1 [Compound 179, 1-[(2-{[4-({6-[(4-chloro-2-fluorophenyl)methyl]pyridin-2-yl}oxy)piperidin-1-yl]methyl}-6-[5-(trifluoromethyl)-4H-1,2,4-triazol-3-yl]-3H-imidazo[4,5-c]pyridin-3-yl)methyl]cyclopropane-1-carbonitrile]
0.14 nM	Fc1cc(Cl)ccc1Cc1cccc(OC2CCN(Cc3nc4cc(-c5nnc(C(F)(F)F)[nH]5)ccc4n3C[C@@H]3CCO3)CC2)n1 [Compound 137a, 2-{[4-({6-[(4-chloro-2-fluorophenyl)methyl]pyridin-2-yl}oxy)piperidin-1-yl]methyl}-1-{[(2S)-oxetan-2-yl]methyl}-5-[5-(trifluoromethyl)-4H-1,2,4-triazol-3-yl]-1H-1,3-benzodiazole]
